Ends that are not written are not given here. glycan = not defined here
Experiments:
[1] = biological target: T1, CKAP4/p63 (Homo sapiens, UniProt Q07065); assay: Sensitivity of siRNA-electroporated normal bladder epithelial cells to APF (thymidine incorporation); assay type: cell-based; conditions: electroporation with siRNA, FIG. 5B
T1 construct: endogenous in cells; host or cells: explanted primary normal human bladder epithelial cells
T1 sequence (Q07065 1-602): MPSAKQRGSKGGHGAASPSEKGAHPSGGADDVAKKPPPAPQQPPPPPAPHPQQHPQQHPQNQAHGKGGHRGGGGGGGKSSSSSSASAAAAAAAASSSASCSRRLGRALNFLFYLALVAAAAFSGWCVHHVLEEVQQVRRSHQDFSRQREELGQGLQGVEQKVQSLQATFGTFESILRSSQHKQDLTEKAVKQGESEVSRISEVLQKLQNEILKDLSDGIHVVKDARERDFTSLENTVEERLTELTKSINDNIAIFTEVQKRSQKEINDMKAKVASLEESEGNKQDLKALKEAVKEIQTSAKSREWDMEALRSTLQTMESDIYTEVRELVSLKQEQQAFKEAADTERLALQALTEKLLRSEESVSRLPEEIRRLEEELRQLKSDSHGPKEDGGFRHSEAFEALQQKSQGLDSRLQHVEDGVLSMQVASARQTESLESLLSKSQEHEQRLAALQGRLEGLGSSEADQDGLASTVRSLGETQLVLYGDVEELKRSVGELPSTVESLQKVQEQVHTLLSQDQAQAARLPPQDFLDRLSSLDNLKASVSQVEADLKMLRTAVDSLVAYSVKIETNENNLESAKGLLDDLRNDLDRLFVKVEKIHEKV
Protocol: Cell proliferation was measured by ^3H-thymidine incorporation into explanted normal human bladder epithelial cells, as previously described (Keay et al., 2004; Keay et al., 1996). Briefly, purified lyophilized synthetic APF was resuspended in acetonitrile/distilled water (1:1), diluted in serum-free MEM (containing only glutamine and antibiotics/antimycotics), and applied to the cells; cell controls received acetonitrile/distilled water diluted in serum-free MEM alone. Cells were then incubated at 37° C. in a 5% CO2 atmosphere for 48 hours. The cell contents harvested and methanol-fixed onto glass fiber filter paper, and the amount of radioactivity incorporated determined. Significant inhibition of 3H-thymidine incorporation was defined as a mean decrease in counts per minute of greater than 2 standard deviations from the mean of control cells for each plate. Double stranded siRNA corresponding to nucleotides 594-616 ([NT] sense strand; SEQ ID NO:5) of CKAP4/p63 (NM-006825) and a scrambled double stranded negative control siRNA ([NT] sense strand; SEQ ID NO:13) were prepared by preincubating single-stranded sense and anti-sense strands prepared with double A overhangs in serum-free MEM medium at 37° C. for 1 hour. […]

[2] = test system: CKAP4/p63; assay: Western blot of CKAP4/p63 protein expression after siRNA electroporation; assay type: cell-based, human; conditions: normal bladder epithelial cells, electroporation with siRNA; FIG. 5A
Protocol: Solubilized high affinity APF-binding bladder epithelial cell proteins were prepared as described above. Solubilized bladder epithelial cell membrane proteins were prepared by rinsing cells in the culture flasks with ice cold PBS, then scraping the cells into ice-cold extraction buffer (20 mM Tris/HCL, pH 7.4, containing 50 μg/ml PMSF, 2 μg/ml aprotinin, 100 μM tosyl-lysine-chloromethyl-ketone, 1 μM pepstatin A, and 1 μg/ml diisopropylfluorophosphate). The cell slurry was then vortexed until homogeneous, and centrifuged at 4° C. for 10 minutes at 14,000 rpm. Supernatant was removed, and the pelleted membrane fraction was washed once with ice cold extraction buffer, repelleted, and proteins were solubilized using ice cold extraction buffer containing 1% Triton X-100. Solubilized total cell proteins were extracted into ice cold RIPA buffer containing 1.0% NP40, as previously described (Keay et al., 2003). Protein concentration of solubilized protein samples was measured using a Folin reagent-based protein assay kit (Bio-Rad). […]

[3] = test system: normal human bladder epithelial cells; assay: 3H-thymidine incorporation cell proliferation assay; assay type: cell-based
Protocol: Cell proliferation was measured by ^3H-thymidine incorporation into explanted normal human bladder epithelial cells, as previously described (Keay et al., 2004; Keay et al., 1996). Briefly, purified lyophilized synthetic APF was resuspended in acetonitrile/distilled water (1:1), diluted in serum-free MEM (containing only glutamine and antibiotics/antimycotics), and applied to the cells; cell controls received acetonitrile/distilled water diluted in serum-free MEM alone. Cells were then incubated at 37° C. in a 5% CO2 atmosphere for 48 hours. The cell contents harvested and methanol-fixed onto glass fiber filter paper, and the amount of radioactivity incorporated determined. Significant inhibition of 3H-thymidine incorporation was defined as a mean decrease in counts per minute of greater than 2 standard deviations from the mean of control cells for each plate.

[4] = test system: normal human bladder epithelial cells; conditions: bladder epithelial cell proliferation; background statement; cited from earlier work
[5] = biological target: T2, cytoskeleton-associated protein 4/p63 (CKAP4/p63) (human, UniProt Q07065 1-602); assay: cell-based or functional assay
T2 sequence: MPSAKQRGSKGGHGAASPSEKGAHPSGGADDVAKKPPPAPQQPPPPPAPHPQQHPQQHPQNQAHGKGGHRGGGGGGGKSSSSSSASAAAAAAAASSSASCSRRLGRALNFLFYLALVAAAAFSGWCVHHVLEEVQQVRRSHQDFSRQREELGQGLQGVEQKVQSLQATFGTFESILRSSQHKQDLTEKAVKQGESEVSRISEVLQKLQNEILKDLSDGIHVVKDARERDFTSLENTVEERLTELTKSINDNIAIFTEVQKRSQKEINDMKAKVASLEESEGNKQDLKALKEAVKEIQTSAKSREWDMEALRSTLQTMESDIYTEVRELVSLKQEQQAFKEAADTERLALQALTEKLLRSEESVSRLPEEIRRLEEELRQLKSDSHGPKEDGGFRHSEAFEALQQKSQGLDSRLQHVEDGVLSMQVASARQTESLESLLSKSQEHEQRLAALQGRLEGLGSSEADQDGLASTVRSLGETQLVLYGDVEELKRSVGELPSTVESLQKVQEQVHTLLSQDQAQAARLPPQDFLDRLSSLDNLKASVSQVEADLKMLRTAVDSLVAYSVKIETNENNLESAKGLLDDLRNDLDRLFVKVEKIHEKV

5′-AAUUCUGUAUGCUA CCUGUAGAA-3′ sense strand [scrambled siRNA, reference compound]
decrease in sensitivity of the cells to APF [1]: no decrease in sensitivity to APF
CKAP4/p63 protein expression relative to beta actin [2]: little or no change

biotinylated synthetic APF: APF biotinylated on the C-terminal lysine residue, carrying Galβ1-3GalNAcα-O-threonine (TVPAAVVVAK)
antiproliferative activity as compared to the parent synthetic GalNAcβ1-3Gal-APF congener ([3]; primary normal bladder epithelial cells): approximately 80%

rhodamine-labeled APF: synthetic APF glycopeptide with C-terminal lysine labelled with 5(6)-Rhodamine B isothiocyanate (TVPAAVVVAK)
antiproliferative activity relative to synthetic, unlabeled APF ([3]; normal bladder epithelial cells): approximately 85%

sialoglycopeptide inhibitor of bladder epithelial cell proliferation; nonapeptide TVPAAVVVA (SEQ ID NO:1) glycosylated on N-terminal threonine [APF, Sialic acid-galactose-N-acetylgalactosamine-threonine-valine-proline-alanine-alanine-valine-valine-valine-alanine]
potency of APF (EC50) [4]: picomolar range

5′-AACUUUUGAGUCCAUCUUGAGAA-3′ sense strand [double-stranded siRNA for CKAP4/p63]
decrease in sensitivity of the cells to APF [1]: approximately one thousand-fold
CKAP4/p63 protein expression relative to beta actin [2]: decreased protein expression of CKAP4/p63 relative to beta actin

T(glycan)VPAAVVVA (reading uncertain; also: exact glycoform not given here) [synthetic APF (antiproliferative factor)]
sensitivity of the cells to APF after siRNA knockdown of CKAP4/p63 (3H-thymidine incorporation) [5]: ~1000 fold
